Assay results published in PubChem BioAssay AID256 (DTP/NCI, 2004).
“And” between values parts separate entries of the source, which are not always exact repeats. Equal values may be shown once. Toxic doses and inconclusive results are not listed. Rule for the calls: active = survival T/C of 150% or more; inactive = T/C below 125% in these data.

System: CD2F1 mice, L1210 leukemia ip, survival T/C
Experiment: NCI In Vivo Anticancer Drug Screen. Data for tumor model L1210 Leukemia (intraperitoneal) in CD2F1 (CDF1) mice
Details: higher = longer survival
How it was run: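 Antitumor effect is scored in animals hosting a serially transplanted tumor. Values compare compound-dosed animals against vehicle-only controls as a simple quotient.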

[1] = endpoint: mean survival time, dose: 100.0 mg/kg/injection, schedule: Q04DX003 (ip), vehicle: saline with Tween-80
[2] = endpoint: mean survival time, dose: 200.0 mg/kg/injection, schedule: Q04DX003 (ip), vehicle: saline with Tween-80
[3] = endpoint: mean survival time, dose: 100.0 mg/kg/injection, schedule: Q01DX009 (ip), vehicle: saline with Tween-80
[4] = endpoint: mean survival time, dose: 200.0 mg/kg/injection, schedule: Q01DX009 (ip), vehicle: saline with Tween-80
[5] = endpoint: mean survival time, dose: 400.0 mg/kg/injection, schedule: Q01DX009 (ip), vehicle: saline with Tween-80
[6] = endpoint: mean survival time, dose: 100.0 mg/kg/injection, schedule: Q04DX002 (ip), vehicle: saline with Tween-80
[7] = endpoint: mean survival time, dose: 200.0 mg/kg/injection, schedule: Q04DX002 (ip), vehicle: saline with Tween-80
[8] = endpoint: mean survival time, dose: 100.0 mg/kg/injection, schedule: Q01DX009 (ip), vehicle: saline
[9] = endpoint: mean survival time, dose: 100.0 mg/kg/injection, schedule: Q04DX003 (ip), vehicle: saline
[10] = endpoint: mean survival time, dose: 200.0 mg/kg/injection, schedule: Q01DX009 (ip), vehicle: saline

Measured: T/C

CN(C)N=Nc1ccc(S(N)(=O)=O)cc1
inactive: endpoint: mean survival time, dose: 18.75 mg/kg/injection, schedule: Q01DX009 (ip), vehicle: Klucel (hydroxypropylcellulose) (HPC) 106 % of control | endpoint: mean survival time, dose: 37.5 mg/kg/injection, schedule: Q01DX009 (ip), vehicle: Klucel (hydroxypropylcellulose) (HPC) 124 % of control | endpoint: mean survival time, dose: 150.0 mg/kg/injection, schedule: Q01DX009 (ip), vehicle: Klucel (hydroxypropylcellulose) (HPC) 118 % of control

COc1ccc(CC(=O)C(C)C(O)(C(F)(F)F)C(F)(F)F)cc1OC (stereo not drawn)
inactive: [1] 108 % of control | [2] 102 % of control | endpoint: mean survival time, dose: 400.0 mg/kg/injection, schedule: Q04DX003 (ip), vehicle: saline with Tween-80 103 % of control

Cc1ccc(O)c2ncccc12
inactive: [3] 114 % of control | [4] 97 % of control | [5] 103 % of control

CC1=C2C3OC(=O)C(C)C3CCC2(C)C=CC1=O (stereo not drawn)
inactive: [6] 116 % of control | [7] 116 % of control

O=c1ccn(C2OC(CCl)C(O)C2O)c(=O)[nH]1 (stereo not drawn)
inactive: endpoint: mean survival time, dose: 50.0 mg/kg/injection, schedule: Q01DX001 (ip), vehicle: saline 105 % of control | endpoint: mean survival time, dose: 100.0 mg/kg/injection, schedule: Q01DX001 (ip), vehicle: saline 102 % of control | endpoint: mean survival time, dose: 200.0 mg/kg/injection, schedule: Q01DX001 (ip), vehicle: saline 94 % of control

Cc1nc2c(NC(=O)CCl)nn(C)c2nc1C
inactive: [1] 98 % of control | [2] 95 % of control

Nc1ccn(C2OC(CO)C(O)C2O)c(=O)n1 (stereo not drawn)
inactive: endpoint: mean survival time, dose: 8.0 mg/kg/injection, schedule: Q X X004 (other), vehicle: saline 86 % of control | endpoint: mean survival time, dose: 16.0 mg/kg/injection, schedule: Q01DX008 (ip), vehicle: saline 95 % of control | endpoint: mean survival time, dose: 16.0 mg/kg/injection, schedule: Q03HX024 (oral), vehicle: saline 100 % of control | endpoint: mean survival time, dose: 30.0 mg/kg/injection, schedule: Q03HX024 (ip), vehicle: saline 93 % of control | endpoint: mean survival time, dose: 32.0 mg/kg/injection, schedule: Q01DX008 (ip), vehicle: saline 93 % of control | endpoint: mean survival time, dose: 32.0 mg/kg/injection, schedule: Q01DX008 (oral), vehicle: saline 100 % of control | endpoint: mean survival time, dose: 64.0 mg/kg/injection, schedule: Q01DX008 (ip), vehicle: saline 98 % of control | endpoint: mean survival time, dose: 64.0 mg/kg/injection, schedule: Q01DX008 (oral), vehicle: saline 98 % of control | [8] 100 % of control | [9] 96 % of control | endpoint: mean survival time, dose: 128.0 mg/kg/injection, schedule: Q01DX001 (ip), vehicle: saline 120 % of control | endpoint: mean survival time, dose: 128.0 mg/kg/injection, schedule: Q01DX008 (ip), vehicle: saline 95 % of control | endpoint: mean survival time, dose: 128.0 mg/kg/injection, schedule: Q03HX024 (oral), vehicle: saline 110 % of control and 95 % of control | endpoint: mean survival time, dose: 128.0 mg/kg/injection, schedule: Q04DX003 (ip), vehicle: saline 98 % of control | endpoint: mean survival time, dose: 128.0 mg/kg/injection, schedule: Q04DX003 (oral), vehicle: saline 120 % of control and 100 % of control | [10] 93 % of control | endpoint: mean survival time, dose: 256.0 mg/kg/injection, schedule: Q01DX001 (ip), vehicle: saline 91 % of control | endpoint: mean survival time, dose: 256.0 mg/kg/injection, schedule: Q01DX001 (oral), vehicle: saline 98 % of control | endpoint: mean survival time, dose: 256.0 mg/kg/injection, schedule: Q01DX009 (ip), vehicle: saline 91 % of control | endpoint: mean survival time, dose: 256.0 mg/kg/injection, schedule: Q04DX003 (oral), vehicle: saline 98 % of control | endpoint: mean survival time, dose: 512.0 mg/kg/injection, schedule: Q01DX001 (ip), vehicle: saline 120 % of control and 97 % of control | endpoint: mean survival time, dose: 512.0 mg/kg/injection, schedule: Q01DX001 (oral), vehicle: saline 100 % of control | endpoint: mean survival time, dose: 512.0 mg/kg/injection, schedule: Q04DX003 (ip), vehicle: saline 96 % of control | endpoint: mean survival time, dose: 600.0 mg/kg/injection, schedule: Q04DX002 (ip), vehicle: saline 94 % of control | endpoint: mean survival time, dose: 1024.0 mg/kg/injection, schedule: Q01DX001 (ip), vehicle: saline 90 % of control | endpoint: mean survival time, dose: 1024.0 mg/kg/injection, schedule: Q01DX009 (ip), vehicle: saline 95 % of control | endpoint: mean survival time, dose: 1024.0 mg/kg/injection, schedule: Q01DX009 (oral), vehicle: saline 98 % of control | endpoint: mean survival time, dose: 1024.0 mg/kg/injection, schedule: Q04DX003 (oral), vehicle: saline 100 % of control | endpoint: mean survival time, dose: 1200.0 mg/kg/injection, schedule: Q04DX002 (ip), vehicle: saline 91 % of control | endpoint: mean survival time, dose: 2400.0 mg/kg/injection, schedule: Q04DX003 (ip), vehicle: saline 96 % of control

CCOC(=O)Nc1cc(NC(=O)OCC)cc([N+](=O)[O-])c1
inactive: [3] 98 % of control | [4] 98 % of control | [5] 106 % of control

CCSc1nc(N)c2ncn(C3OC(CO)C(O)C3O)c2n1 (stereo not drawn)
inactive: endpoint: median survival time, dose: 10.0 mg/kg/injection, schedule: Q01DX005 (ip), vehicle: saline with Tween-80 103 % of control | endpoint: median survival time, dose: 20.0 mg/kg/injection, schedule: Q01DX005 (ip), vehicle: saline with Tween-80 100 % of control | endpoint: median survival time, dose: 40.0 mg/kg/injection, schedule: Q01DX005 (ip), vehicle: saline with Tween-80 91 % of control | endpoint: median survival time, dose: 80.0 mg/kg/injection, schedule: Q01DX005 (ip), vehicle: saline with Tween-80 88 % of control | endpoint: median survival time, dose: 160.0 mg/kg/injection, schedule: Q01DX005 (ip), vehicle: saline with Tween-80 93 % of control

O=Cc1ccc(OCCCOc2ccc([N+](=O)[O-])cc2)cc1
inactive: endpoint: mean survival time, dose: 100.0 mg/kg/injection, schedule: Q04DX002 (ip), vehicle: Klucel (hydroxypropylcellulose) (HPC) 102 % of control | endpoint: mean survival time, dose: 200.0 mg/kg/injection, schedule: Q04DX002 (ip), vehicle: Klucel (hydroxypropylcellulose) (HPC) 94 % of control | endpoint: mean survival time, dose: 400.0 mg/kg/injection, schedule: Q04DX002 (ip), vehicle: Klucel (hydroxypropylcellulose) (HPC) 102 % of control

CCCCCCCCCCCCCCCC(=O)Nc1c(C)cc(C)cc1C
inactive: [6] 103 % of control | [7] 111 % of control | endpoint: mean survival time, dose: 400.0 mg/kg/injection, schedule: Q04DX002 (ip), vehicle: saline with Tween-80 91 % of control

NCCCNCCNCCCN
inactive: endpoint: mean survival time, dose: 25.0 mg/kg/injection, schedule: Q04DX003 (ip), vehicle: saline 101 % of control | endpoint: mean survival time, dose: 50.0 mg/kg/injection, schedule: Q04DX003 (ip), vehicle: saline 101 % of control | [9] 97 % of control

O=C1NC(=O)C(C2CC2)(C2CC2)N1
inactive: [3] 95 % of control | [4] 94 % of control | [5] 96 % of control

C=CC(O)Cc1ccccc1 (stereo not drawn) (tested in a mixture with another compound)
inactive: endpoint: mean survival time, dose: 75.0 mg/kg/injection, schedule: Q01DX009 (ip), vehicle: saline 98 % of control | endpoint: mean survival time, dose: 150.0 mg/kg/injection, schedule: Q01DX009 (ip), vehicle: saline 101 % of control | endpoint: mean survival time, dose: 300.0 mg/kg/injection, schedule: Q01DX009 (ip), vehicle: saline 107 % of control

CC(=O)OC1CCCC(OC(C)=O)C1OC(C)=O (stereo not drawn)
inactive: [9] 107 % of control | endpoint: mean survival time, dose: 200.0 mg/kg/injection, schedule: Q04DX003 (ip), vehicle: saline 96 % of control | endpoint: mean survival time, dose: 400.0 mg/kg/injection, schedule: Q04DX003 (ip), vehicle: saline 101 % of control

CCNCC
inactive: [8] 100 % of control | [10] 94 % of control | endpoint: mean survival time, dose: 400.0 mg/kg/injection, schedule: Q01DX009 (ip), vehicle: saline 105 % of control

CCOC(=O)c1ccc(NC(=O)Oc2cc3ccccc3cc2C(=O)Nc2ccccc2)cc1
inactive: endpoint: mean survival time, dose: 25.0 mg/kg/injection, schedule: Q01DX001 (ip), vehicle: saline with Tween-80 87 % of control | endpoint: mean survival time, dose: 25.0 mg/kg/injection, schedule: Q01DX009 (ip), vehicle: saline with Tween-80 94 % of control and 96 % of control | endpoint: mean survival time, dose: 25.0 mg/kg/injection, schedule: Q04DX002 (ip), vehicle: saline with Tween-80 97 % of control | endpoint: mean survival time, dose: 25.0 mg/kg/injection, schedule: Q04DX003 (ip), vehicle: saline with Tween-80 96 % of control and 98 % of control | endpoint: mean survival time, dose: 50.0 mg/kg/injection, schedule: Q01DX001 (ip), vehicle: saline with Tween-80 87 % of control | endpoint: mean survival time, dose: 50.0 mg/kg/injection, schedule: Q01DX009 (ip), vehicle: saline with Tween-80 88 % of control and 92 % of control | endpoint: mean survival time, dose: 50.0 mg/kg/injection, schedule: Q04DX002 (ip), vehicle: saline with Tween-80 88 % of control and 92 % of control | endpoint: mean survival time, dose: 50.0 mg/kg/injection, schedule: Q04DX003 (ip), vehicle: saline with Tween-80 88 % of control and 92 % of control | endpoint: mean survival time, dose: 100.0 mg/kg/injection, schedule: Q01DX001 (ip), vehicle: saline with Tween-80 87 % of control | [3] 91 % of control and 96 % of control | [1] 92 % of control | [7] 87 % of control | [2] 92 % of control and 93 % of control
